The values below come from patent US10251398B2, “Improving shelf life and color profile of resin compositions with silver nanoparticles” (priority 2013, dated 2019).

For data set [1] the following is noted: in water; cited from earlier work.
For data set [2] the following is noted: silver benzoate combined with solvent DMAEMA; FIG. 1. The text has this: FIG. 9 compares the resin compositions of FIG. 7 (A) with the color profiles of various resin compositions prepared with the silver benzoate/DMAEMA mixture added to the base resin before mixing with the catalyst resin to polymerize and cured by either light-curing or self-curing (B).

With `C=C(C)C(=O)OC` [methyl methacrylate (MMA), methyl methacrylate], in data set [1], the water solubility entry is listed as “about 1.6 g in 100 g of water”.
As to `O=C([O-])c1ccccc1.[Ag+]` [silver benzoate], the “change in color over time” value in data set [2] is recorded as “become darker over time”.
